Measurements as given in PubChem BioAssay AID652232 (The Scripps Research Institute Molecular Screening Center, 2013).
Active and inactive are the calls of the source.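 The calls were made as follows: active = blocks protein phosphatase 1 activity with an IC50 half-maximal inhibitory concentration below 10 µM; inactive = IC50 of 10 µM or higher.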

What follows are compounds tested against Serine/threonine-protein phosphatase PP1-alpha catalytic subunit (Homo sapiens) (UniProt P62136) (assay: PP1 phosphohistone dephosphorylation inhibitor potency, late-stage follow-up, biochemical, radiolabel, dose response, powder samples (AID 652232)). Conditions: purified PP1alpha, 33P-phosphohistone dephosphorylation, scintillation.
Sequence of Serine/threonine-protein phosphatase PP1-alpha catalytic subunit (Homo sapiens) (P62136 whole entry, looked up): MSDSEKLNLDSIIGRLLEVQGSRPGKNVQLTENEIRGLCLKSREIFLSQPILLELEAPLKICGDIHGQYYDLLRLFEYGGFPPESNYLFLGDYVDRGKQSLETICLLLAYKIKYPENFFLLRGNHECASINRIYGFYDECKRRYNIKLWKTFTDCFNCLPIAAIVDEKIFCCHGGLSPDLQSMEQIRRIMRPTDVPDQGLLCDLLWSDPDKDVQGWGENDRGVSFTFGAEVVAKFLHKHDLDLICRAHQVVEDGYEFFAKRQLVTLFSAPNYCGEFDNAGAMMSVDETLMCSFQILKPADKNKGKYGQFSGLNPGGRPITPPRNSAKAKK

Row | IC50 | Compound
1 | 27 µM | Oc1c(C(c2ccccn2)N2CCC(Cc3ccccc3)CC2)cc(Cl)c2cccnc12 (centres undefined)
2 | inactive | Oc1c(C(c2ccccn2)N2CCN(c3ccccc3F)CC2)cc(Cl)c2cccnc12 (centres undefined)
3 | inactive | CC1CCN(C(c2ccccn2)c2cc(Cl)c3cccnc3c2O)CC1 (centres undefined)
4 | 44.2 µM | CC(C)(C)OC(=O)N1CCN(C(c2ccccn2)c2cc(Cl)c3cccnc3c2O)CC1 (centres undefined)
